The values below come from patent US7326697B2, “Methods for increasing the therapeutic response to electroconvulsive therapy” (Corcept Therapeutics, Inc., priority 2002, dated 2008).

The conditions of data set [1]: in one study; cited from earlier work.
Data set [2] in a line: Case: mental illness treated with mifepristone therapy followed by bilateral ECT. Type of data set: in vivo. The settings on record: one patient. As to the method: The patient subsequently underwent four treatments of bilateral ECT while continuing mifepristone therapy. […] During each treatment session, the patient received between 60 and 100 mg of methohexital and between 60 and 80 mg of succinylcholine.
For the first ECT treatment, the patient was delivered a stimulus using the Thymatron ECT device at 35% with […] eeg seizure duration and 115 second motor duration. After the first treatment, the patient was better able to organize their thoughts and was able to engage in more appropriate conversations. The second treatment was also at 35%, but the eeg duration decreased to 61 seconds and no motor seizure was detected. Consequently on the third treatment, the energy setting was increased to 40% with 115 second eeg duration and 91 second motor duration. After the third treatment, the patient had fewer somatic delusions, was able to comprehend written text and was easier to engage in conversation.

For the molecule `CC#C[C@]1(O)CC[C@H]2[C@@H]3CCC4=CC(=O)CCC4=C3[C@@H](c3ccc(N(C)C)cc3)C[C@@]21C` [mifepristone, (11β, 17β)-11-[4-(dimethylamino)phenyl]-17-hydroxy-17-(1-propynyl)estra-4,9-dien-3-one], in data set [1], the “fraction of the daily dose excreted in the urine” value is “less than 0.5%”. In addition, the “clinical response to ECT while continuing mifepristone therapy” value in data set [2] (after four treatments of bilateral ECT, before the fifth) is recorded as “dramatically improved”. Further, the “clinical response to mifepristone therapy alone” value in data set [2] (before ECT) is recorded as “not significantly improving”. The “side-effects of ECT with continued mifepristone therapy” value in data set [2] (four treatments of bilateral ECT) is “some impairment in short term memory but otherwise had no side-effects”.
